PMC8226474, “Design, Syntheses, and Bioevaluations of Some Novel N^2-Acryloylbenzohydrazides as Chemostimulants and Cytotoxic Agents” (Medicines, 2021)
Values joined by “and” are separate entries in the source; they are usually repeats but may differ in a detail not shown here. Identical values can stand only once. Like-named read-outs stand apart in the source and are kept apart here.

Columns and labels:
MDA-MB-231 cells = test: Cytotoxicity assay, MDA-MB-231 breast cancer cells; format: cell-based, human; conditions: Homo sapiens, MDA-MB-231, 48 h, read-out: percentage inhibition of MDA-MB-231 cells
Text: (§1) Evaluation of the cytotoxic properties of the compounds presented in Table 1, Table 2, Table 3 and Table 4 was undertaken using the procedure outlined in [7]. In brief, the HCT 116 cells were obtained from the ATCC and cultured in McCoy’s 5A medium. The CRL 1790 cells were obtained from the ATCC and cultured in Minimum Essential Medium. The MCF-7 and MDA-MBA-231 cells were obtained from the Saskatchewan Cancer Agency and cultured in DMEM. In each assay the culture medium was supplemented with 10% fetal bovine serum and 1% penicillin–streptomycin antibiotics. The time of the bioassays was 48 h, unless indicated otherwise. All determinations were carried out in triplicate on three different occasions.

HCT 116 cells [1] = test: Cytotoxicity assay, HCT 116 colon cancer cells; format: cell-based, human; conditions: for inhibition at 10 µM / inhibition at 100 µM / IC50: Homo sapiens, HCT-116, 48 h; for inhibition at 10 µM / inhibition at 100 µM: read-out: percentage inhibition of HCT 116 cells; for SI (selectivity index): IC50 CRL 1790 / IC50 HCT 116
Text: as §1

MCF-7 cells = test: Cytotoxicity assay, MCF-7 breast cancer cells; format: cell-based, human; conditions: for inhibition at 10 µM / inhibition at 100 µM / IC50: Homo sapiens, MCF7, 48 h; for inhibition at 10 µM / inhibition at 100 µM: read-out: percentage inhibition of MCF-7 cells; for IC50 / SI (selectivity index): Table 2; for IC50: read-out: Neoplastic Cells IC50, MCF-7; for SI (selectivity index): IC50 CRL 1790 / IC50 MCF-7
Text: as §1

CRL 1790 cells = test: Cytotoxicity assay, non-malignant CRL 1790 colon cells; format: cell-based; conditions: Homo sapiens, 48 h
Text: as §1

HCT 116 cells [2] = test: Mitochondrial membrane potential of HCT 116 cells (TMRE dye); format: cell-based, human; conditions: IC50 concentration towards HCT 116, 48 h, Figure 4
Text: The method of Crowley et al. was employed in order to ascertain the effects of 1m, 7a, e, g, and 5-FU on the mitochondrial membrane potential of HCT 116 cells.
The decision was made to experiment with another method for determining the effect of compounds on the MMP. In this assay, the dye used was tetramethylrhodamine ethyl ester (TMRE), which can be found in the mitochondria of healthy cells. However, in apoptotic cells, the dye is released into the cytosol, leading to a decrease in the fluorescence signal.

HCT 116 cells [3] = test: Chemosensitization of HCT 116 cells: 1m for 24 h, then 2a or 5-FU for a further 24 h; format: cell-based, human; conditions: for Reduction in Live Cells % 1m (48 h): DMSO figure minus compound figure
Text: as §1
The next phase of the investigation was to determine whether a representative compound in series 1 chemosensitizes HCT 116 cells to a 3,5-bis(benzylidene)-4-piperidone 2a. […] The colon cancer cells were incubated for 24 h with 1m, and then 2a was added and the incubation was continued for a further 24 h. Different concentrations of both 1m and 2a were employed, and the results are presented as entries 1–12 in Table 3. In addition, the effects of each of 1m, 2a, and 5-FU on HCT 116 cells (which are necessary for the evaluation of whether chemosensitivity occurs) were recorded, and are presented as entries 13–20 in Table 3.
The concentration of 1m in combination 4 is 5 µM, which after 48 h causes a percentage reduction of live cells to 86% (DMSO figure after 48 h, line 20) minus 75% (48 h, line 13), or 11%.
The concentration of 2a in combination 4 is 0.2 µM. This combination leads to a reduction of the percentage of live cells to 91% (DMSO figure after 24 h, line 20) minus 69%, or 22%.
The percentage reduction in live cells caused by a combination of 1m (5 µM) and 2a (0.2 µM), in the absence of chemosensitization, is 11% plus 22%, or 33%.
However, the percentage reduction in cells as indicated on line 4 is 86% (DMSO figure after 48 h) minus 12% (line 4, 48 h figure), or 74%.

HCT 116 cells [4] = test: ROS levels in HCT 116 cells (DCF-DA dye); format: cell-based, human; conditions: IC50 concentration towards HCT 116; DCF-DA fluorescence; Figure 5
Protocol: In this assay, the dye 2,7-dichlorofluorescein diacetate (DCF-DA) was used, and the effects of 1m, 7a, e, g, and 5-FU on the ROS levels in HCT 116 cells were determined by the method of [11].
The evaluation of 1m, […], e, and g for their capacity to increase the concentration of ROS in HCT 116 cells used 2′,7′-dichlorofluorescein diacetate. This dye is deacetylated in cells, and is converted into a non-fluorescent compound that reacts with ROS to form 2′,7′-dichlorofluorescein, which is fluorescent.

[5] = Table 2, read-out: Non-Malignant CRL 1790 Cells IC50
[6] = Table 2, read-out: Neoplastic Cells IC50, HCT 116
[7] = Table 4, read-out: IC50 HCT 116
[8] = ratio of IC50 values towards HCT 116 cells
[9] = Table 4, read-out: IC50 CRL 1790

| Compound | melting point [°C] | inhibition at 10 µM (MDA-MB-231 cells) [%] | inhibition at 100 µM (MDA-MB-231 cells) [%] | inhibition at 10 µM (HCT 116 cells [1]) [%] | inhibition at 100 µM (HCT 116 cells [1]) [%] | inhibition at 10 µM (MCF-7 cells) [%] | inhibition at 100 µM (MCF-7 cells) [%] | IC50 (CRL 1790 cells; [5]) [µM] | effect on mitochondrial membrane potential of HCT 116 cells (HCT 116 cells [2]) | effect on ROS levels in HCT 116 cells (HCT 116 cells [4]) | IC50 (HCT 116 cells [1]; [7]) [µM] | IC50 (CRL 1790 cells; [9]) [µM] | SI (selectivity index) (HCT 116 cells [1]; Table 4) | also measured |
| --- | --- | --- | --- | --- | --- | --- | --- | --- | --- | --- | --- | --- | --- | --- |
| C=CC(=O)NNC(=O)c1ccccc1C [1j, N^2-Acryloyl-2-methylbenzohydrazide] | 151 to 153 | -2.64 ± 2.37 | 46.8 ± 3.63 | 10.4 ± 1.61 | 62.1 ± 2.48 | 53.3 ± 3.07 | > 100 | > 100 | – | – | – | – | – | IC50 (MCF-7 cells): 9.14 ± 1.31 µM; SI (selectivity index) (MCF-7 cells): >10.9 |
| C=CC(=O)NNC(=O)c1ccc(C)cc1 [1k, N^2-Acryloyl-4-methylbenzohydrazide] | 157 to 160 | -8.78 ± 1.52 | 74.7 ± 2.96 | 11.5 ± 2.99 | > 100 | 55.3 ± 3.05 | > 100 | > 100 | – | – | – | – | – | IC50 (MCF-7 cells): 5.54 ± 0.51 µM; SI (selectivity index) (MCF-7 cells): >18.1 |
| C=CC(=O)NNC(=O)c1ccc(OC)c(OC)c1 [1m, N^2-Acryloyl-3,4-dimethoxylbenzohydrazide] | 163 to 165 | -15.9 ± 1.96 | 50.5 ± 1.42 | 46.9 ± 2.55 | 97.9 ± 1.92 | -16.1 ± 3.51 | > 100 | > 100 | only 7e reduces the electrochemical potential of the mitochondria | increase the fluorescence intensity | – | – | – | IC50 (HCT 116 cells [1]; [6]): 15.3 ± 0.42 µM; SI (selectivity index) (HCT 116 cells [1]; Table 2): >6.54; Reduction in Live Cells % 1m (48 h) (HCT 116 cells [3]; 1m 5 µM alone, 48 h): 11%; Reduction in Live Cells % 1m (48 h) (HCT 116 cells [3]; 1m 10 µM alone, 48 h): 29%; Reduction in Live Cells % 1m (48 h) (HCT 116 cells [3]; 1m 15 µM alone, 48 h): 54%; chemosensitization of HCT 116 cells (HCT 116 cells [3]; 1m 24 h before the cytotoxin, certain concentrations): sensitizes HCT 116 cells to the potent cytotoxin 2a, and also to the established anticancer drug 5-FU; Live Cells % (HCT 116 cells [3]; entry 13: 1m 5 µM alone, 24 h): 88 ± 2.82%; Live Cells % (HCT 116 cells [3]; entry 13: 1m 5 µM alone, 48 h): 75% and 75 ± 4.89%; Live Cells % (HCT 116 cells [3]; entry 14: 1m 10 µM alone, 24 h): 67 ± 1.67%; Live Cells % (HCT 116 cells [3]; entry 14: 1m 10 µM alone, 48 h): 57 ± 1.76%; Live Cells % (HCT 116 cells [3]; entry 15: 1m 15 µM alone, 24 h): 61 ± 3.49%; Live Cells % (HCT 116 cells [3]; entry 15: 1m 15 µM alone, 48 h): 32 ± 0.94% |
| CCC(=O)NNC(=O)c1ccccc1 [6a, N^2-Propionylbenzohydrazide] | 106 to 107 | -25.3 ± 1.82 | -11.6 ± 2.52 | -10.5 ± 2.93 | 9.35 ± 2.53 | -19.6 ± 3.66 | -5.69 ± 2.54 | > 100 | – | – | – | – | – | IC50 (HCT 116 cells [1]; [6]): > 100 µM; SI (selectivity index) (HCT 116 cells [1]; Table 2): ~1.00 |
| COc1ccc(C(=O)NNC(=O)CCN2CC(=Cc3ccc([N+](=O)[O-])cc3)C(=O)C(=Cc3ccc([N+](=O)[O-])cc3)C2)cc1OC [7e, 3,5-Bis(4-nitrobenzylidene)-1-[3-(3,4-dimethoxyphenylcarbonylaminoamino)-3-oxo-1-propyl]-4-piperidone] | 153 to 158 | – | – | – | – | – | – | – | reduces the electrochemical potential of the mitochondria | increase the fluorescence intensity | 0.28 ± 0.01 | 4.57 ± 0.53 | 16.3 | times more potent than 5-FU (HCT 116 cells [1]; [8]): 14.7 times; times the antineoplastic activity of melphalan (HCT 116 cells [1]; [8]): 119 times |

The next lines start with results.

| melting point [°C] | Compound | inhibition at 10 µM (MDA-MB-231 cells) [%] | inhibition at 100 µM (MDA-MB-231 cells) [%] | inhibition at 10 µM (HCT 116 cells [1]) [%] | inhibition at 100 µM (HCT 116 cells [1]) [%] | inhibition at 10 µM (MCF-7 cells) [%] | inhibition at 100 µM (MCF-7 cells) [%] | IC50 (CRL 1790 cells; [5]) [µM] | effect on mitochondrial membrane potential of HCT 116 cells (HCT 116 cells [2]) | effect on ROS levels in HCT 116 cells (HCT 116 cells [4]) | IC50 (HCT 116 cells [1]; [7]) [µM] | IC50 (CRL 1790 cells; [9]) [µM] | SI (selectivity index) (HCT 116 cells [1]; Table 4) | also measured |
| --- | --- | --- | --- | --- | --- | --- | --- | --- | --- | --- | --- | --- | --- | --- |
| 154 to 156 | O=C(CCN1CC(=Cc2ccccc2)C(=O)C(=Cc2ccccc2)C1)NNC(=O)c1ccccc1 [7a, 3,5-Bis(benzylidene)-1-[3-(phenylcarbonylaminoamino)-3-oxo-1-propyl]-4-piperidone] | – | – | – | – | – | – | – | only 7e reduces the electrochemical potential of the mitochondria | increase the fluorescence intensity | 1.38 ± 0.25 | 12.3 ± 1.09 | – | times more potent than 1a (HCT 116 cells [1]; [8]): 26.7 times |
| 198 to 200 | COc1ccc(C(=O)NNC(=O)CCN2CC(=Cc3ccc(F)cc3)C(=O)C(=Cc3ccc(F)cc3)C2)cc1OC [7d, 3,5-Bis(4-fluorobenzylidene)-1-[3-(3,4-dimethoxyphenylcarbonylaminoamino)-3-oxo-1-propyl]-4-piperidone] | – | – | – | – | – | – | – | – | – | 3.82 ± 0.11 | 11.4 ± 2.22 | 2.99 | – |
| 175 to 178 | COc1ccc(C=C2CN(CCC(=O)NNC(=O)c3ccc(OC)c(OC)c3)CC(=Cc3ccc(OC)cc3)C2=O)cc1 [7f, 3,5-Bis(4-methoxybenzylidene)-1-[3-(3,4-dimethoxyphenylcarbonylaminoamino)-3-oxo-1-propyl]-4-piperidone] | – | – | – | – | – | – | – | – | – | 2.87 ± 0.23 | 11.1 ± 0.52 | 3.86 | – |
| 190 to 192 | COc1ccc(C(=O)NNC(=O)CCN2CC(=Cc3ccc(C)cc3)C(=O)C(=Cc3ccc(C)cc3)C2)cc1OC [7g, 3,5-Bis(4-methylbenzylidene)-1-[3-(3,4-dimethoxyphenylcarbonylaminoamino)-3-oxo-1-propyl]-4-piperidone] | – | – | – | – | – | – | – | only 7e reduces the electrochemical potential of the mitochondria | increase the fluorescence intensity | 1.94 ± 0.18 | 9.24 ± 0.52 | 4.76 | – |
